Data: US9504729B2, “Antiangiogenic small molecules and methods of use” (The United States of America, as represented by the …, priority 2009, dated 2016)

What was measured:
[1] = target: FGFR1 (Homo sapiens, UniProt P11362); assay: SelectScreen kinase activity profiling, FGFR1; assay type: biochemical; design: concentration or dose not given beside the values; conditions: for Mean % Inhibition: mean of two independent trials
From the text: To characterize the RTK inhibitory activity of the antiangiogenic SMs described herein, 36 compounds were chosen and screened using Invitrogen's SelectScreen® kinase activity profiling service (described on-line at tools.invitrogen.com/content.cfm?pageid=10413#selection). VEGFR1 and FGFR2 RTK inhibitory activities were studied. […] Overall, a small minority of the SMs tested had any substantial kinase inhibitory activity. This observation supports a mechanism of antiangiogenic action other than RTK inhibition for most of the SMs described herein.

[2] = target: KDR(VEGFR2) (Homo sapiens, UniProt P35968); assay: SelectScreen kinase activity profiling, KDR(VEGFR2); assay type: biochemical; design: % Inhibition / Mean % Inhibition: concentration or dose not given beside the values; conditions: KDR(VEGFR2); for Mean % Inhibition: mean of two independent trials
[3] = first of two independent trials
[4] = second of two independent trials

Sequence of KDR(VEGFR2) (P35968 20-1356): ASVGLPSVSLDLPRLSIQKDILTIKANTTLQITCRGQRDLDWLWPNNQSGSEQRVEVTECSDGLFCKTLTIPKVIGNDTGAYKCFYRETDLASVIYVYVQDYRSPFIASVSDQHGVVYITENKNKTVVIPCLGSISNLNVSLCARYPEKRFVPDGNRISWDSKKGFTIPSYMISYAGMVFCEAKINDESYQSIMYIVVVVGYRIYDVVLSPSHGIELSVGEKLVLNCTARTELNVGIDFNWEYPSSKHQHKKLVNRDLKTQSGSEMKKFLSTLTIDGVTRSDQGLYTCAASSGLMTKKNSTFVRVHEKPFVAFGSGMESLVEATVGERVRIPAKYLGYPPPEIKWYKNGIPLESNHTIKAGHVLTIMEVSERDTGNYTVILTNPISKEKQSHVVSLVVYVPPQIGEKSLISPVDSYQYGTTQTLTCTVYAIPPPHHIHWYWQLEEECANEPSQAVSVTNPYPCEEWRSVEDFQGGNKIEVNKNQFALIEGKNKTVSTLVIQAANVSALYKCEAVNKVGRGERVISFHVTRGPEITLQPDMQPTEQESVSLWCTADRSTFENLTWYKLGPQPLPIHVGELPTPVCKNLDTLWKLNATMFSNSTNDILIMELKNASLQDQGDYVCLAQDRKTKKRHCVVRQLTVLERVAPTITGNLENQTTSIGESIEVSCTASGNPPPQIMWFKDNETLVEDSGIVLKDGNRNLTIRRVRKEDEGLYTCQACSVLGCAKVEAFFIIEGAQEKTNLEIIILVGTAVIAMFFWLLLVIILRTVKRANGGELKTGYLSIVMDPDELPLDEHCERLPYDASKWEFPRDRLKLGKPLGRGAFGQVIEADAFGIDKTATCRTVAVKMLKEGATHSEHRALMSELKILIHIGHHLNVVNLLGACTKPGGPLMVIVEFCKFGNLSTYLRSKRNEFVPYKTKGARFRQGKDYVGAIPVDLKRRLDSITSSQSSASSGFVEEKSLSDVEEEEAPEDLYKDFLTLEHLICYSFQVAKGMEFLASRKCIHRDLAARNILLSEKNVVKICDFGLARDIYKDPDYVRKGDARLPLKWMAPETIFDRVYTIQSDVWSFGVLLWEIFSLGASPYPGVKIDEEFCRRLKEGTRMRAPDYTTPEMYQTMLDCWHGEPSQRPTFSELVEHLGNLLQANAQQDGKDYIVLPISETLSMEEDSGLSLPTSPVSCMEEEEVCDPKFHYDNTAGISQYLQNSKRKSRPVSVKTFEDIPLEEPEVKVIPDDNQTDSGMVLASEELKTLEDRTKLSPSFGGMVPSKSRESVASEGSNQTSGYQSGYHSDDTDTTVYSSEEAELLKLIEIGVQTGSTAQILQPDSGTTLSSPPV
Sequence of FGFR1 (P11362 398-822 limits assumed): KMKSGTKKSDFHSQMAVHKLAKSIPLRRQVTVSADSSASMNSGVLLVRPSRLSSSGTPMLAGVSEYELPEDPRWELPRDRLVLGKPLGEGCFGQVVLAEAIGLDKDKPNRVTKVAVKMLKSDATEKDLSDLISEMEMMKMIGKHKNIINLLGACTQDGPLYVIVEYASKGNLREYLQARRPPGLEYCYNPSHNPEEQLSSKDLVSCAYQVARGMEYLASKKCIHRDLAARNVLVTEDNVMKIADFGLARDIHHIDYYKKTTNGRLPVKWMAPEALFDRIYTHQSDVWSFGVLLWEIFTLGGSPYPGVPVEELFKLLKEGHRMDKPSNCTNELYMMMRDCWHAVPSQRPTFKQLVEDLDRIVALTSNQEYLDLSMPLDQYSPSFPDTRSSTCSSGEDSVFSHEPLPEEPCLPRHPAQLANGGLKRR

Row | Compound | % Inhibition [1, 3] [%] | Mean % Inhibition [1] [%] | % Inhibition [1, 4] [%] | % Inhibition [2, 3] [%] | Mean % Inhibition [2] [%] | % Inhibition [2, 4] [%]
1 | CCC(=O)OCN1C(=O)C=CC1=O [compound 19630] | 2 | 0 | −2 | 90 | 90 | 91
2 | O=C1C(=Cc2ccccc2)C(NC2CCCCC2)c2ccccc21 (stereo not drawn) [compound 150117] | 2 | 5 | 7 | 28 | 26 | 24
3 | COc1ccc(CC2C(=O)NC(C)C(=O)N(C)C3Cc4ccc(cc4)Oc4cc(ccc4O)CC(C(=O)NC(C)C(=O)NC(C)C(=O)N2C)N(C)C3=O)cc1 (stereo not drawn) [compound 259969] | 3 | 3 | 3 | 0 | 5 | 9
4 | COc1cc2cc(c1Cl)N(C)C(=O)CC(OC(=O)C(C)C)C1(C)OC1C(C)C1CC(O)(NC(=O)O1)C(OC)/C=C/C=C(\C)C2 (stereo not drawn) [compound 292222] | 2 | 3 | 5 | 8 | 7 | 7
5 | CC1CCN(CC[S-])CC1.O.O.[Cl][Pt+] [compound 292596] | 4 | 4 | 4 | 9 | 14 | 18
